Experimental data published in PubChem BioAssay (NCI).
Values joined by “and” are separate entries in the source; they are usually repeats but may differ in a detail not shown here. Equal entries are not always repeated.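 The compound was tested at five concentrations on cells cultured in 96-well plates, with a 48-hour exposure period. GI50 is the concentration that inhibits growth by half. TGI: concentration producing complete growth inhibition.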

Assays:
Assay in all cases: DTP human tumour cell line panel, 48 h
SNB-75 CNS = test system: SNB-75 CNS
TK-10 renal = test system: TK-10 renal
COLO 205 colon = test system: COLO 205 colon
ACHN renal = test system: ACHN renal
HCT-15 colon = test system: HCT-15 colon
PC-3 prostate = test system: PC-3 prostate
OVCAR-3 ovarian = test system: OVCAR-3 ovarian
NCI-H522 lung = test system: NCI-H522 lung
K-562 leukemia = test system: K-562 leukemia
SN12C renal = test system: SN12C renal
786-0 renal = test system: 786-0 renal
MDA-MB-435 = test system: MDA-MB-435
CAKI-1 renal = test system: CAKI-1 renal
NCI-H460 lung = test system: NCI-H460 lung
SF-539 CNS = test system: SF-539 CNS
LOX IMVI melanoma = test system: LOX IMVI melanoma
SK-MEL-2 melanoma = test system: SK-MEL-2 melanoma
M14 melanoma = test system: M14 melanoma
SK-OV-3 ovarian = test system: SK-OV-3 ovarian
HS 578T breast = test system: HS 578T breast
SF-268 CNS = test system: SF-268 CNS
SNB-19 CNS = test system: SNB-19 CNS
HCT-116 colon = test system: HCT-116 colon
A498 renal = test system: A498 renal
HCC-2998 colon = test system: HCC-2998 colon
UO-31 renal = test system: UO-31 renal
KM12 colon = test system: KM12 colon
MDA-MB-231 breast = test system: MDA-MB-231 breast
OVCAR-8 ovarian = test system: OVCAR-8 ovarian
IGROV1 ovarian = test system: IGROV1 ovarian
OVCAR-4 ovarian = test system: OVCAR-4 ovarian
DU-145 prostate = test system: DU-145 prostate
HL-60(TB) leukemia = test system: HL-60(TB) leukemia
MOLT-4 leukemia = test system: MOLT-4 leukemia
OVCAR-5 ovarian = test system: OVCAR-5 ovarian
BT-549 breast = test system: BT-549 breast
U251 CNS = test system: U251 CNS
EKVX NSCLC = test system: EKVX NSCLC
NCI/ADR-RES ovarian = test system: NCI/ADR-RES ovarian
SK-MEL-28 melanoma = test system: SK-MEL-28 melanoma
HOP-62 NSCLC = test system: HOP-62 NSCLC
MCF7 breast = test system: MCF7 breast
UACC-62 melanoma = test system: UACC-62 melanoma
SW-620 colon = test system: SW-620 colon
T-47D breast = test system: T-47D breast
A549 NSCLC = test system: A549 NSCLC
MALME-3M melanoma = test system: MALME-3M melanoma
RPMI-8226 leukemia = test system: RPMI-8226 leukemia
RXF 393 renal = test system: RXF 393 renal
SF-295 CNS = test system: SF-295 CNS
SK-MEL-5 melanoma = test system: SK-MEL-5 melanoma

## Cc1nc2c(-c3cnc(N)nc3)nc(N3CCOCC3)nc2n1C(C)C
SNB-75 CNS
  TGI: 334 nM and 272 nM
TK-10 renal
  TGI: 600 nM and 505 nM
COLO 205 colon
  TGI: 1100 nM and 3680 nM
ACHN renal
  TGI: > 100000 nM
HCT-15 colon
  TGI: > 100000 nM
PC-3 prostate
  TGI: > 100000 nM
OVCAR-3 ovarian
  TGI: 1640 nM and 1920 nM
NCI-H522 lung
  GI50: 137 nM and 138 nM
K-562 leukemia
  GI50: 1000 nM and 661 nM
  TGI: > 100000 nM
SN12C renal
  TGI: > 100000 nM
786-0 renal
  TGI: 1320 nM and 902 nM
MDA-MB-435
  GI50: 182 nM and 113 nM
  TGI: 1320 nM and 1160 nM
CAKI-1 renal
  TGI: 1420 nM and 2940 nM
NCI-H460 lung
  TGI: > 100000 nM
SF-539 CNS
  TGI: 1170 nM and 481 nM
LOX IMVI melanoma
  TGI: 1560 nM and 6030 nM
SK-MEL-2 melanoma
  TGI: 733 nM and 688 nM
M14 melanoma
  TGI: 2120 nM and 5910 nM
SK-OV-3 ovarian
  TGI: 570 nM and 226 nM
HS 578T breast
  TGI: 578 nM and 199 nM
SF-268 CNS
  TGI: > 100000 nM
SNB-19 CNS
  TGI: > 100000 nM
HCT-116 colon
  GI50: 254 nM and 289 nM
  TGI: > 100000 nM
A498 renal
  TGI: 156 nM and 58.7 nM
HCC-2998 colon
  TGI: 4270 nM and 24800 nM
UO-31 renal
  TGI: 452 nM and 401 nM
KM12 colon
  TGI: > 10000 nM and 21800 nM
MDA-MB-231 breast
  TGI: > 4140 nM and 27100 nM
OVCAR-8 ovarian
  TGI: > 5510 nM and 4370 nM
IGROV1 ovarian
  TGI: 262 nM and 286 nM
OVCAR-4 ovarian
  TGI: 1990 nM and 786 nM
DU-145 prostate
  TGI: > 100000 nM
HL-60(TB) leukemia
  GI50: 222 nM and 230 nM
  TGI: > 5870 nM and 20900 nM
MOLT-4 leukemia
  GI50: 297 nM and 197 nM
  TGI: > 59300 nM
OVCAR-5 ovarian
  TGI: > 3480 nM
BT-549 breast
  TGI: 2220 nM
U251 CNS
  TGI: > 10000 nM and 37700 nM
EKVX NSCLC
  TGI: 1810 nM
NCI/ADR-RES ovarian
  TGI: 4810 nM
SK-MEL-28 melanoma
  TGI: 524 nM and 3510 nM
HOP-62 NSCLC
  TGI: 3500 nM and 772 nM
MCF7 breast
  GI50: 87.6 nM and 29.8 nM
  TGI: > 100000 nM
UACC-62 melanoma
  TGI: 334 nM and 305 nM
SW-620 colon
  TGI: > 100000 nM
T-47D breast
  TGI: 251 nM and 102 nM
A549 NSCLC
  TGI: 2660 nM
MALME-3M melanoma
  TGI: 460 nM and 225 nM
RPMI-8226 leukemia
  GI50: 179 nM and 123 nM
  TGI: > 3000 nM and 10900 nM
RXF 393 renal
  TGI: 611 nM and 315 nM
SF-295 CNS
  TGI: 888 nM and 406 nM
SK-MEL-5 melanoma
  TGI: 900 nM and 652 nM
